Source: patent US6177425A, “Pyrrolopyrrolone derivatives” (Glaxo Wellcome Inc., priority 1997, dated 2001)
Structures can show the parent of a compound that is named as a salt.

Target: T1, human neutrophil elastase (Homo sapiens, UniProt P08246)
T1 sequence (P08246 30-247 limits assumed): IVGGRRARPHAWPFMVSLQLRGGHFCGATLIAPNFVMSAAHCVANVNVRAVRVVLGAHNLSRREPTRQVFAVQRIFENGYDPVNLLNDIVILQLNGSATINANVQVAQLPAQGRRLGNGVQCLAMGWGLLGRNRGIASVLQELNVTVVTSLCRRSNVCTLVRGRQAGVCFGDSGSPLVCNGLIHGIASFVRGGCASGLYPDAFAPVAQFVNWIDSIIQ
Assay: In vitro Assays of Human Neutrophil Elastase
Assay type: biochemical
Details: purified human neutrophil elastase 11.8 nM, pH 8.6, 15 min incubation at 30° C., 0.6 mM MeO-succinyl-alanyl-alanyl-prolyl-valyl-p-nitroanilide, 405 nm
Description: In vitro Assays of Human Neutrophil Elastase Assay contents: 50 mM Tris/HCl (pH 8.6) 150 mM NaCl 11.8 nM purified human neutrophil elastase Suitable concentrations of compound under test diluted with water from a 10 mM stock solution in dimethylsulphoxide. Values above are final concentrations after the addition of substrate solution (see below). The mixture above is incubated for fifteen minutes at 30° C. at which time the remaining elastase activity is measured for 10 minutes in a BioTek 340i plate-reader, after the addition of 0.6 mM MeO-succinyl-alanyl-alanyl-prolyl-valyl-p-nitroanilide. The rate of increase in absorbance at 405 nm is proportional to elastase activity. Enzyme activity is plotted against concentration of inhibitor and an IC50 determined using curve fitting software. 1. The compounds of Examples 1 to 7 were tested in the in vitro elastase test described earlier in the description.

Compound | IC50 [µM]
CCC[C@H]1C(=O)N(S(C)(=O)=O)[C@H]2CN(C(=O)CCCN3CCCCC3)C[C@H]12 (relative stereo) [Example 2, rel-(3R,3aS,6aR)-1-Methanesulfonyl-5-(4-piperidin-1-yl-butyryl)-3-propyl-hexahydro-pyrrolo[3,4-b]pyrrol-2-one] | 0.9
CCC[C@H]1C(=O)N(S(C)(=O)=O)[C@H]2CN(C(=O)C=CCN3CCCCC3)C[C@H]12 (relative stereo) [Example 1, rel-(3R,3aS,6aR)-1-Methanesulfonyl-5-(4-piperidin-1-yl-but-2-enoyl)-3-propyl-hexahydro-pyrrolo[3,4-b]pyrrol-2-one hydrochloride] | 0.227
CCC[C@H]1C(=O)N(S(C)(=O)=O)[C@H]2CN(C(=O)c3cc(CN(C)C)on3)C[C@H]12 (relative stereo) [Example 7, rel-(3R,3aS,6aR)-5-(5-Dimethylaminomethyl-isoxazole-3-carbonyl)-1-methanesulfonyl-3-propyl-hexahydro-pyrrolo[3,4-b]pyrrol-2-one hydrochloride] | 0.399
CCC[C@H]1C(=O)N(S(C)(=O)=O)[C@H]2CN(C(=O)c3cc(CN4CCOCC4)on3)C[C@H]12 (relative stereo) [Example 6, rel-(3R,3aS,6aR)-1-Methanesulfonyl-5-(5-morpholin-4-ylmethyl-isoxazole-3-carbonyl)-3-propyl-hexahydro-pyrrolo[3,4-b]pyrrol-2-one hydrochloride] | 0.146
CCC[C@H]1C(=O)N(S(C)(=O)=O)[C@H]2CN(S(=O)(=O)c3ccc(NC(C)=O)cc3)C[C@H]12 (relative stereo) [Example 3, rel-N-[4-(1-Methanesulfonyl-2-oxo-3R-propylhexahydro-(3aS,6aR)-pyrrolo[3,4-b]pyrrole-5-sulfonyl)-phenyl]acetamide] | 0.229
CCC[C@H]1C(=O)N(S(C)(=O)=O)[C@H]2CN(C(=O)c3ccc(CN4CCCCC4)cc3)C[C@H]12 (relative stereo) [Example 4, rel-(3R,3aS,6aR)-1-Methanesulfonyl-5-(4-piperidin-1-ylmethyl-benzoyl)-3-propyl-hexahydro-pyrrolo[3,4-b]pyrrol-2-one hydrochloride] | 0.296
CCC[C@H]1C(=O)N(S(C)(=O)=O)[C@H]2CN(C(=O)c3ccc(CN4CCOCC4)cc3)C[C@H]12 (relative stereo) [Example 5, rel-(3R,3aS,6aR)-1-Methanesulfonyl-5-(4-morpholin-4-ylmethyl-benzoyl)-3-propyl-hexahydro-pyrrolo[3,4-b]pyrrol-2-one hydrochloride] | 0.222
